Data on 31 compounds can be found in US20070142389A1, “PIPERIDINE DERIVATIVES” (PFIZER INC., priority 2005, published 2007).

Experiment [1] concerns the target T1, human serotonin transporter (Homo sapiens, UniProt P31645).
T1 construct: expressed in transfected cells; host or cells: HEK-293
The experiment in a line: hSERT Receptor Binding ([125I]-RTI-55 displacement, HEK-293 membranes). As to the method: Cell pastes of HEK-293 cells transfected with a human serotonin transporter cDNA were prepared. The cell pastes were resuspended in 400 to 700 mL of Krebs-HEPES assay buffer (25 mM HEPES, 122 mM NaCl, 3 mM KCl, 1.2 mM MgSO4, 1.3 mM CaCl2, and 11 mM glucose, pH 7.4) with a Polytron homogenizer at Setting 7 for 30 seconds. Aliquots of membranes (about 2.5 mg/mL protein) were stored in liquid nitrogen until used.
Assays were set up in FlashPlates pre-coated with 0.1 % PEI in a total volume of 250 μL containing: compound of one of the Examples (10^−5M to 10^−12M), cell membanes, and 50 pM [^125l]-RTI-55 (Perkin Elmer, NEX-272; specific activity 2200 Ci/mmol). The reaction was incubated and gently agitated for 90 minutes at room temperature, and terminated by removal of assay volume. Plates were covered, and bound [^125I]-RTI-55 was determined using a Wallac Trilux Beta Plate Counter. Test compounds were run in duplicate, and specific binding was defined as the difference between binding in the presence and absence of 10 μM citalopram.
(§1) Excel and GraphPad Prism software were used for data calculation and analysis. IC50 values were converted to Ki values using the Cheng-Prusoff equation.

The target in experiment [2] is T2, human norepinephrine transporter (Homo sapiens, UniProt P23975).
T2 construct: expressed in transfected cells; host or cells: HEK-293
Briefly: hNET Receptor Binding ([125I]-RTI-55 displacement, HEK-293 membranes). As to the method: Cell pastes of HEK-293 cells transfected with a human norepinephrine transporter cDNA were prepared. The cell pastes were resuspended in 400 to 700 mL of Krebs-HEPES assay buffer (25 mM HEPES, 122 mM NaCl, 3 mM KCl, 1.2 mM MgSO4, 1.3 mM CaCl2, and 11 mM glucose, pH 7.4) with a Polytron homogenizer at setting 7 for 30 seconds. Aliquots of membranes (5 mg/mL protein) were stored in liquid nitrogen until used.
The binding assay was set up in Beckman deep-well polypropylene plates with a total volume of 250 μL containing: compound of one of the Examples (10^−5M to 10^−12M), cell membranes, and 50 pM [^125I]-RTI-55 (Perkin Elmer, NEX-272; specific activity 2200 Ci/mmol). The reaction was incubated by gentle agitation for 90 minutes at room temperature and was terminated by filtration through Whatman GF/C filter plates using a Brandel 96-well plate harvester. Scintillation fluid (100 μL) was added to each well, and bound [^125I]-RTI-55 was determined using a Wallac Trilux Beta Plate Counter. Test compounds were run in duplicate, and specific binding was defined as the difference between binding in the presence and absence of 10 μM desipramine.
as §1

Setting [3] is: hSERT, HEK-293 cell membranes, 50 pM [125I]-RTI-55, Ki from IC50 by Cheng-Prusoff, read-out: SERT Ki.
[4] abbreviates: hNET, HEK-293 cell membranes, 50 pM [125I]-RTI-55, Ki from IC50 by Cheng-Prusoff, read-out: NET Ki.

SMILES strings stand for the structures. pKi: −log10 of the molar value. Like-named read-outs stand apart in the source and are kept apart here.

T1 sequence (P31645 whole entry): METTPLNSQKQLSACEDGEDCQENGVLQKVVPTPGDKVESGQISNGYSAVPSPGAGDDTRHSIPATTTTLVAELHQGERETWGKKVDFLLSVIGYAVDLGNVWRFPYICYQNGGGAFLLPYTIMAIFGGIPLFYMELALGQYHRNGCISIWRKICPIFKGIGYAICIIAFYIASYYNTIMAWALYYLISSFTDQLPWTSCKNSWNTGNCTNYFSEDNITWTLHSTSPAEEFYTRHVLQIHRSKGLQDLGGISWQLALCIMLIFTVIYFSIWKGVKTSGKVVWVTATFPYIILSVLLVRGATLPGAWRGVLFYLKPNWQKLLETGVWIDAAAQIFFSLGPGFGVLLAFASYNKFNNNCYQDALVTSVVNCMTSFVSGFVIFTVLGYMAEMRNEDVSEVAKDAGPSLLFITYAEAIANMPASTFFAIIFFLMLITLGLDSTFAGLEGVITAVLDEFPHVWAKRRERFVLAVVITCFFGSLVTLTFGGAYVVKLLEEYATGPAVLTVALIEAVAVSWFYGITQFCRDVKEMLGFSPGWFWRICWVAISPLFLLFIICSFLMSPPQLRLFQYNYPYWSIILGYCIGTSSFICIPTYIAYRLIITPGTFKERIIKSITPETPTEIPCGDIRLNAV
T2 sequence (P23975 whole entry): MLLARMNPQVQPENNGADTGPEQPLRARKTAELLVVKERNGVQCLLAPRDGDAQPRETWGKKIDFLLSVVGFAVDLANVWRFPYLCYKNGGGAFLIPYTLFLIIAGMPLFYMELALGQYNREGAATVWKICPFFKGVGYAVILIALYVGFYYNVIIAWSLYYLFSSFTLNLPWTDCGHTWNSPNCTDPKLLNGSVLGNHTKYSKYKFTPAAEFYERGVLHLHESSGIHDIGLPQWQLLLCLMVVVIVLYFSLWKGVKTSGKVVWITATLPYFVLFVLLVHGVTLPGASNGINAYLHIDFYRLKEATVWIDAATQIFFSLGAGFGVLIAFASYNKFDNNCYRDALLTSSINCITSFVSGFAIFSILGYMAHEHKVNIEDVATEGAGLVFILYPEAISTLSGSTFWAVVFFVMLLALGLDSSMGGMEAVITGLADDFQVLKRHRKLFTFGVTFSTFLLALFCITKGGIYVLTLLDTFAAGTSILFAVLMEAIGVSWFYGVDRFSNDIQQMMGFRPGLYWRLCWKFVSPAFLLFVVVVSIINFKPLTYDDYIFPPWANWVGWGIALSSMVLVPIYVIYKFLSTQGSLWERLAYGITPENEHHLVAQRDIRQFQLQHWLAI

Consider `CCOc1ncccc1OC[C@@H]1CNCC[C@H]1c1ccc(F)cc1` (racemic) [Example 58, (±)-trans-2-Ethoxy-3-[4-(4-fluoro-phenyl)-piperidin-3-ylmethoxy]-pyridine], for which the negative logarithm of the Ki (pKi) in experiment [1] was 8.22; in experiment [2], 8.20.

For `CCOc1ncccc1OC[C@@H]1CNCC[C@H]1c1cccc(F)c1` (racemic) [Example 59, (±)-trans-2-Ethoxy-3-[4-(3-fluoro-phenyl)-piperidin-3-ylmethoxy]-pyridine], the negative-log Ki (pKi) was 7.97 in experiment [1] (setting [3]) and 8.36 in experiment [2] (setting [4]).

As for `CCCCc1ncccc1OC[C@@H]1CNCC[C@H]1c1ccccc1` (racemic) [Example 61, (±)-trans-2-Butyl-3-(4-phenyl-piperidin-3-ylmethoxy)-pyridine], the pKi was 7.62 in experiment [1] (setting [3]) and 8.13 in experiment [2] (setting [4]).

Consider `CC(C)Cc1ncccc1OC[C@@H]1CNCC[C@H]1c1ccccc1` (racemic) [Example 62, (±)-trans-2-lsobutyl-3-(4-phenyl-piperidin-3-ylmethoxy)-pyridine], for which the pKi was 7.23 in experiment [1] (setting [3]) and 7.33 in experiment [2] (setting [4]).

`c1ccc(-c2ccccc2OC[C@@H]2CNCC[C@H]2c2ccccc2)cc1` (relative stereo) [Example 47, trans-3-(Biphenyl-2-yloxymethyl)-4-phenyl-piperidine]: the results for the negative-log Ki (pKi) in experiment [1] (setting [3]) and in experiment [2] (setting [4]) were 5.98 and 7.29, respectively.

In the case of `CCOc1ccccc1OC[C@@H]1CNCC[C@H]1c1ccccc1` (relative stereo) [Example 48, trans-3-(2-Ethoxy-phenoxymethyl)-4-phenyl-piperidine], the pKi in experiment [2] (setting [4]) was 8.68.

On to `CC(C)c1ccccc1OC[C@@H]1CNCC[C@H]1c1ccccc1` (relative stereo) [Example 49, trans-3-(2-lsopropyl-phenoxymethyl)-4-phenyl-piperidine], for which the figures for the negative logarithm of the Ki (pKi) in experiment [1] (setting [3]) and in experiment [2] (setting [4]) were 7.08 and 7.71, respectively.

As to `CCCc1ccccc1OC[C@@H]1CNCC[C@H]1c1ccccc1` (relative stereo) [Example 50, trans-4-Phenyl-3-(2-propyl-phenoxymethyl)-piperidine], the negative-log Ki (pKi) is 7.48 in experiment [1] (setting [3]) and 7.80 in experiment [2] (setting [4]).

As to `c1ccc([C@@H]2CCNC[C@H]2COc2ccccc2C2CCCCC2)cc1` (relative stereo) [Example 51, trans-3-(2-Cyclohexyl-phenoxymethyl)-4-phenyl-piperidine], the pKi in experiment [1] (setting [3]) is 6.76; in experiment [2] (setting [4]) it was 7.12.

For `CCOc1ccccc1OC[C@@H]1CNCC[C@@H]1c1ccccc1` (relative stereo) [Example 52, cis-3-(2-Ethoxy-phenoxymethyl)-4-phenyl-piperidine], the results for the negative logarithm of the Ki (pKi) in experiment [1] (setting [3]) and in experiment [2] (setting [4]) were 7.02 and 7.46, respectively.

As for `CCCc1ccccc1OC[C@@H]1CNCC[C@@H]1c1ccccc1` (relative stereo) [Example 53, cis-4-Phenyl-3-(2-propyl-phenoxymethyl)-piperidine], the values for the negative logarithm of the Ki (pKi) in experiment [1] (setting [3]) and in experiment [2] (setting [4]) were 6.57 and 6.86, respectively.

For `CC(C)c1ccccc1OC[C@@H]1CNCC[C@@H]1c1ccccc1` (relative stereo) [Example 54, cis-3-(2-lsopropyl-phenoxymethyl)-4-phenyl-piperidine], the results for the negative-log Ki (pKi) in experiment [1] (setting [3]) and in experiment [2] (setting [4]) were 6.68 and 7.44, respectively.

As for `c1ccc(-c2ccccc2OC[C@@H]2CNCC[C@@H]2c2ccccc2)cc1` (relative stereo) [Example 55, cis-3-(Biphenyl-2-yloxymethyl)-4-phenyl-piperidine], the pKi is 5.98 in experiment [1] (setting [3]) and 6.67 in experiment [2] (setting [4]).

With `c1ccc([C@H]2CCNC[C@H]2COc2ccccc2C2CCCCC2)cc1` (relative stereo) [Example 56, cis-3-(2-Cyclohexyl-phenoxymethyl)-4-phenyl-piperidine], the negative logarithm of the Ki (pKi) was 6.27 in experiment [1] (setting [3]) and 6.50 in experiment [2] (setting [4]).

Take `CCOc1ncccc1OC[C@@H]1CNCC[C@@H]1c1ccc(F)cc1` (single isomer, unassigned) [Example 57, (+)-cis-2-Ethoxy-3-[4-(4-fluoro-phenyl)-piperidin-3-ylmethoxy]-pyridine]: the negative-log Ki (pKi) in experiment [1] was 7.46; in experiment [2], 6.72.

`CCOc1ccccc1OC[C@H]1CNCC[C@@H]1c1ccccc1` [Example 3, (3R,4S)-3-(2-Ethoxy-phenoxymethyl)-4-phenyl-piperidine]: the pKi in experiment [1] (setting [3]) is 7.73; in experiment [2] (setting [4]), 5.90.

Turning to `FC(F)(F)c1ccc(OC[C@H]2CNCC[C@@H]2c2ccccc2)nc1` [Example 4, (3R,4S)-2-(4-Phenyl-piperidin-3-ylmethoxy)-5-trifluoromethyl-pyridine], the pKi in experiment [1] (setting [3]) was 7.82; in experiment [2] (setting [4]) it was 5.73.

As to `Cc1ccc(OC[C@H]2CNCC[C@@H]2c2ccccc2)nc1` [Example 5, (3R,4S)-5-Methyl-2-(4-phenyl-piperidin-3-ylmethoxy)-pyridine], the pKi in experiment [1] (setting [3]) is 8.64; in experiment [2] (setting [4]), 5.58.

As to `COc1ncccc1OC[C@H]1CNCC[C@@H]1c1ccccc1` [Example 6, (3R,4S)-2-Methoxy-3-(4-phenyl-piperidin-3-ylmethoxy)-pyridine], the pKi in experiment [1] (setting [3]) was 9.28; in experiment [2] (setting [4]), 5.46.

For `CCCOc1ncccc1OC[C@H]1CNCC[C@@H]1c1ccccc1` [Example 8, (3R,4S)-3-(4-Phenyl-piperidin-3-ylmethoxy)-2-propoxy-pyridine], the negative logarithm of the Ki (pKi) in experiment [1] (setting [3]) was 7.77; in experiment [2] (setting [4]), 5.88.

For the compound `COCCOc1ncccc1OC[C@H]1CNCC[C@@H]1c1ccccc1` [Example 10, (3R,4S)-2-(2-Methoxy-ethoxy)-3-(4-phenyl-piperidin-3-ylmethoxy)-pyridine], the values for the pKi in experiment [1] (setting [3]) and in experiment [2] (setting [4]) were 7.73 and 5.20, respectively.

`Cn1nc(OC[C@H]2CNCC[C@@H]2c2ccccc2)cc1C(F)(F)F` [Example 13, (3R,4S)-3-(1-Methyl-5-trifluoromethyl-1 H-pyrazol-3-yloxymethyl)-4-phenyl-piperidine]: the results for the pKi in experiment [1] (setting [3]) and in experiment [2] (setting [4]) were 8.57 and 6.21, respectively.

With `CC(C)COc1ncccc1OC[C@@H]1CNCC[C@H]1c1ccccc1` [Example 15, (3S,4R)-2-lsobutoxy-3-(4-phenyl-piperidin-3-ylmethoxy)-pyridine], the values for the negative-log Ki (pKi) in experiment [1] (setting [3]) and in experiment [2] (setting [4]) were 7.68 and 8.31, respectively.

Take `c1ccc([C@@H]2CCNC[C@H]2COc2cccnc2OC2CCOCC2)cc1` [Example 16, (3S,4R)-3-(4-Phenyl-piperidin-3-ylmethoxy)-2-(tetrahydro-pyran-4-yloxy)-pyridine]: the pKi in experiment [1] (setting [3]) is 6.17; in experiment [2] (setting [4]), 6.53.

As to `CCOc1ccccc1OC[C@@H]1CNCC[C@H]1c1ccccc1` [Example 18, (3S,4R)-3-(2-Ethoxy-phenoxymethyl)-4-phenyl-piperidine], the pKi in experiment [2] (setting [4]) is 8.76.

Consider `FC(F)(F)c1ccc(OC[C@@H]2CNCC[C@H]2c2ccccc2)nc1` [Example 19, (3S,4R)-2-(4-Phenyl-piperidin-3-ylmethoxy)-5-trifluoromethyl-pyridine], for which the pKi in experiment [1] (setting [3]) was 7.54; in experiment [2] (setting [4]) it was 6.84.

`Cc1ccc(OC[C@@H]2CNCC[C@H]2c2ccccc2)nc1` [Example 20, (3S,4R)-5-Methyl-2-(4-phenyl-piperidin-3-ylmethoxy)-pyridine]: the pKi in experiment [1] (setting [3]) is 8.50; in experiment [2] (setting [4]) it was 6.80.

For `Cn1nc(C(F)(F)F)cc1OC[C@@H]1CNCC[C@H]1c1ccccc1` [Example 21, (3S,4R)-3-(2-Methyl-5-trifluoromethyl-2H-pyrazol-3-yloxymethyl)-4-phenyl-piperidine], the pKi was 7.20 in experiment [1] (setting [3]) and 5.90 in experiment [2] (setting [4]).

As for `Cc1ccc(OC[C@@H]2CNCC[C@H]2c2ccccc2)cn1` [Example 22, (3S,4R)-2-Methyl-5-(4-phenyl-piperidin-3-ylmethoxy)-pyridine], the negative logarithm of the Ki (pKi) in experiment [1] (setting [3]) is 8.46; in experiment [2] (setting [4]) it was 6.58.

Take `COCc1cc(OC[C@@H]2CNCC[C@H]2c2ccccc2)[nH]n1` [Example 23, (3S,4R)-3-(5-Methoxymethyl-2H-pyrazol-3-yloxymethyl)-4-phenyl-piperidine]: the negative logarithm of the Ki (pKi) in experiment [1] (setting [3]) was 5.86; in experiment [2] (setting [4]), 5.82.

On to `Cn1nc(OC[C@@H]2CNCC[C@H]2c2ccccc2)cc1C(F)(F)F` [Example 24, (3S,4R)-3-(1-Methyl-5-trifluoromethyl-1 H-pyrazol-3-yloxymethyl)-4-phenyl-piperidine], for which the results for the pKi in experiment [1] (setting [3]) and in experiment [2] (setting [4]) were 7.06 and 6.29, respectively.
